≈ marks a conversion by molar mass, not a printed value.
Tests used:
Assay in all cases: in vitro antibacterial evaluation, MIC by broth dilution
Format in all cases: cell-based
Streptococcus sp. = conditions: broth dilution, 18 hours at 35° C.; for MIC Streptococcus pneumoniae (ATCC 6301): strain ATCC 6301; for MIC Streptococcus pneumoniae (GC 1894): strain GC 1894; for MIC Streptococcus pyogenes (GC 4563): strain GC 4563; for MIC Streptococcus agalactiae (GC 4564): strain GC 4564; for MIC Streptococcus pneumoniae (GC 4565): strain GC 4565
Outline: (§1)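 Broth dilution per NCCLS standard M7-A2 in Muller-Hinton II […], with an inoculum of 5×10^5 CFU/mL and antibiotic spanning 64-0.06 μg/mL. The MIC is the lowest concentration that inhibits growth of the organism.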

Staphylococcus sp. = conditions: broth dilution, 18 hours at 35° C.; for MIC Staphylococcus aureus (GC 1131): strain GC 1131
Outline: as §1

Escherichia coli = system: Escherichia coli
Outline: as §1

Enterococcus sp. = conditions: broth dilution, 18 hours at 35° C.; for MIC Enterococcus faecalis (ATCC 29212): strain ATCC 29212; for MIC Enterococcus faecalis (GC 2242): strain GC 2242; for MIC Enterococcus faecium (GC 2243): strain GC 2243; for MIC Enterococcus faecalis (GC 2691): strain GC 2691; for MIC Enterococcus faecalis (GC 3059): strain GC 3059; for MIC Enterococcus faecalis (GC 4552): strain GC 4552; for MIC Enterococcus faecalis (GC 4553): strain GC 4553; for MIC Enterococcus faecalis (GC 4554): strain GC 4554; for MIC Enterococcus faecium (GC 4556): strain GC 4556; for MIC Enterococcus faecium (GC 4557): strain GC 4557; for MIC Enterococcus avium (GC 4558): strain GC 4558; for MIC Enterococcus faecalis (GC 6189): strain GC 6189
Outline: as §1

For CC(c1ccccc1)C1NC(=O)CNC(=O)C(CO)NC(=O)C(C(O)C2CNC(=N)N2C2OC(CO)C(O)C(O)C2O)NC(=O)C(C(O)C2CNC(=N)N2)NC(=O)C(Cc2ccc(OC3OC(CO)C(OC4OC5COC(c6ccc(Oc7ccc(C(C)(C)C)cc7)cc6)OC5C(O)C4O)C(O)C3O)cc2)NC1=O (centres unmarked) [Example 181], the “MIC Streptococcus pneumoniae (ATCC 6301)” value (Streptococcus sp.; inoculum 5×10^5 CFU/mL) was <0.06 µg/mL, the “MIC Streptococcus pneumoniae (GC 1894)” value (Streptococcus sp.; inoculum 5×10^5 CFU/mL) was <0.06 µg/mL and the “MIC Streptococcus pyogenes (GC 4563)” value (Streptococcus sp.; inoculum 5×10^5 CFU/mL) was 0.5 µg/mL (≈ 0.326 µM). For the same compound, the “MIC Streptococcus agalactiae (GC 4564)” value (Streptococcus sp.; inoculum 5×10^5 CFU/mL) was <0.06 µg/mL, the “MIC Streptococcus pneumoniae (GC 4565)” value (Streptococcus sp.; inoculum 5×10^5 CFU/mL) was <0.06 µg/mL and the “MIC Streptococcus pneumoniae (ATCC 6301)” value (Streptococcus sp.) was <0.06 µg/mL. The “MIC Streptococcus pneumoniae (GC 1894)” value (Streptococcus sp.) was <0.06 µg/mL, the “MIC Streptococcus pyogenes (GC 4563)” value (Streptococcus sp.) was 0.5 µg/mL (≈ 0.326 µM) and the “MIC Streptococcus agalactiae (GC 4564)” value (Streptococcus sp.) was <0.06 µg/mL. For the same compound, the “MIC Streptococcus pneumoniae (GC 4565)” value (Streptococcus sp.) was <0.06 µg/mL, the “MIC Staphylococcus aureus (GC 1131)” value (Staphylococcus sp.; inoculum 5×10^5 CFU/mL) was 4 µg/mL (≈ 2.61 µM) and the “MIC Staphylococcus aureus (ATCC 29213)” value (Staphylococcus sp.; strain ATCC 29213) was 4 µg/mL (≈ 2.61 µM). For the same compound, the “MIC Staphylococcus aureus (GC 1131)” value (Staphylococcus sp.) was 4 µg/mL (≈ 2.61 µM), the “MIC Staphylococcus aureus (GC 3051)” value (Staphylococcus sp.; strain GC 3051) was 4 µg/mL (≈ 2.61 µM) and the “MIC Staphylococcus aureus (GC 3053)” value (Staphylococcus sp.; strain GC 3053) was 4 µg/mL (≈ 2.61 µM). The “MIC Staphylococcus aureus (GC 4541)” value (Staphylococcus sp.; strain GC 4541) was 4 µg/mL (≈ 2.61 µM), the “MIC Staphylococcus aureus (GC 4542)” value (Staphylococcus sp.; strain GC 4542) was 4 µg/mL (≈ 2.61 µM) and the “MIC Staphylococcus aureus (GC 4544)” value (Staphylococcus sp.; strain GC 4544) was 4 µg/mL (≈ 2.61 µM). The “MIC Staphylococcus aureus (GC 4545)” value (Staphylococcus sp.; strain GC 4545) was 4 µg/mL (≈ 2.61 µM), the “MIC Staphylococcus aureus-SMITH (GC 4543)” value (Staphylococcus sp.; strain GC 4543) was 4 µg/mL (≈ 2.61 µM) and the “MIC Staphylococcus haemolyticus (GC 4546)” value (Staphylococcus sp.; strain GC 4546) was 8 µg/mL (≈ 5.22 µM). For the same compound, the “MIC Coagulase Negative Staphylococcus (GC 4547)” value (Staphylococcus sp.; strain GC 4547) was 8 µg/mL (≈ 5.22 µM), the “MIC Coagulase Negative Staphylococcus (GC 4548)” value (Staphylococcus sp.; strain GC 4548) was 2 µg/mL (≈ 1.31 µM) and the “MIC Coagulase Negative Staphylococcus (GC 4549)” value (Staphylococcus sp.; strain GC 4549) was 1 µg/mL (≈ 0.653 µM). For the same compound, the “MIC Coagulase Negative Staphylococcus (GC 4551)” value (Staphylococcus sp.; strain GC 4551) was 2 µg/mL (≈ 1.31 µM), the “MIC Coagulase Negative Staphylococcus (GC 6257)” value (Staphylococcus sp.; strain GC 6257) was 2 µg/mL (≈ 1.31 µM) and the “MIC Escherichia coli (ATCC 25922)” value (Escherichia coli; strain ATCC 25922, 18 hours at 35° C.) was >64 µg/mL. For the same compound, the “MIC Escherichia coli (GC 4559)” value (Escherichia coli; strain GC 4559, 18 hours at 35° C.) was >64 µg/mL, the “MIC Escherichia coli (GC 4560)” value (Escherichia coli; strain GC 4560, 18 hours at 35° C.) was 16 µg/mL (≈ 10.4 µM) and the “MIC Enterococcus faecalis (ATCC 29212)” value (Enterococcus sp.; inoculum 5×10^5 CFU/mL) was 2 µg/mL (≈ 1.31 µM). For the same compound, the “MIC Enterococcus faecalis (GC 2242)” value (Enterococcus sp.; inoculum 5×10^5 CFU/mL) was 2 µg/mL (≈ 1.31 µM), the “MIC Enterococcus faecium (GC 2243)” value (Enterococcus sp.; inoculum 5×10^5 CFU/mL) was 2 µg/mL (≈ 1.31 µM) and the “MIC Enterococcus faecalis (GC 2691)” value (Enterococcus sp.; inoculum 5×10^5 CFU/mL) was 4 µg/mL (≈ 2.61 µM). The “MIC Enterococcus faecalis (GC 3059)” value (Enterococcus sp.; inoculum 5×10^5 CFU/mL) was 4 µg/mL (≈ 2.61 µM), the “MIC Enterococcus faecalis (GC 4552)” value (Enterococcus sp.; inoculum 5×10^5 CFU/mL) was 2 µg/mL (≈ 1.31 µM) and the “MIC Enterococcus faecalis (GC 4553)” value (Enterococcus sp.; inoculum 5×10^5 CFU/mL) was 1 µg/mL (≈ 0.653 µM). The “MIC Enterococcus faecalis (GC 4554)” value (Enterococcus sp.; inoculum 5×10^5 CFU/mL) was 2 µg/mL (≈ 1.31 µM), the “MIC Enterococcus faecium (GC 4556)” value (Enterococcus sp.; inoculum 5×10^5 CFU/mL) was 4 µg/mL (≈ 2.61 µM) and the “MIC Enterococcus faecium (GC 4557)” value (Enterococcus sp.; inoculum 5×10^5 CFU/mL) was 4 µg/mL (≈ 2.61 µM). For the same compound, the “MIC Enterococcus avium (GC 4558)” value (Enterococcus sp.; inoculum 5×10^5 CFU/mL) was 4 µg/mL (≈ 2.61 µM), the “MIC Enterococcus faecalis (GC 6189)” value (Enterococcus sp.; inoculum 5×10^5 CFU/mL) was 2 µg/mL (≈ 1.31 µM) and the “MIC Enterococcus faecalis (ATCC 29212)” value (Enterococcus sp.) was 2 µg/mL (≈ 1.31 µM). The “MIC Enterococcus faecalis (GC 2242)” value (Enterococcus sp.) was 2 µg/mL (≈ 1.31 µM), the “MIC Enterococcus faecium (GC 2243)” value (Enterococcus sp.) was 2 µg/mL (≈ 1.31 µM) and the “MIC Enterococcus faecalis (GC 2691)” value (Enterococcus sp.) was 4 µg/mL (≈ 2.61 µM). For the same compound, the “MIC Enterococcus faecalis (GC 3059)” value (Enterococcus sp.) was 4 µg/mL (≈ 2.61 µM), the “MIC Enterococcus faecalis (GC 4552)” value (Enterococcus sp.) was 2 µg/mL (≈ 1.31 µM) and the “MIC Enterococcus faecalis (GC 4553)” value (Enterococcus sp.) was 1 µg/mL (≈ 0.653 µM). For the same compound, the “MIC Enterococcus faecalis (GC 4554)” value (Enterococcus sp.) was 2 µg/mL (≈ 1.31 µM), the “MIC Enterococcus faecium (GC 4556)” value (Enterococcus sp.) was 4 µg/mL (≈ 2.61 µM) and the “MIC Enterococcus faecium (GC 4557)” value (Enterococcus sp.) was 4 µg/mL (≈ 2.61 µM). The “MIC Enterococcus avium (GC 4558)” value (Enterococcus sp.) was 4 µg/mL (≈ 2.61 µM) and the “MIC Enterococcus faecalis (GC 6189)” value (Enterococcus sp.) was 2 µg/mL (≈ 1.31 µM).

Reference: patent US6914045B2, “Glycopeptide antibiotics” (Wyeth Holdings Corporation, priority 2001, dated 2005)
